Earlier results in US20020155976A1, “Cleaning compositions” (Unilever Home & Personal Care USA, Division of Conopco, Inc., priority 2000, published 2002).
Read-outs that look alike come from different tables or passages of the source.

[1] = at 20° C., other common materials, by contrast

Compound	Water Solubility [1]	Water Solubility (grams of solid to form a saturated solution in 100 grams of water at 20° C., highly water-soluble materials)
O=BO[O-].[Na+] [Sodium perborate anhydrous]	3.7 g/100 g	–
O=P(O)(O)OP(=O)(O)OP(=O)(O)O [Sodium tripolyphosphate anhydrous]	15 g/100 g	–
NC(N)=O [Urea]	–	>100 g/100 g
